PubChem BioAssay (NCI)
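Protocol summary: plate cells (96-well), add compound at 5 concentrations, incubate 48 h, interpolate endpoints linearly. At the GI50, growth is halved. TGI denotes the concentration required for complete inhibition of growth.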

How the values were obtained:
Test in all cases: NCI tumour cell line growth inhibition, 48 h
[1] = test system: MCF7 breast
[2] = test system: BT-549 breast
[3] = test system: K-562 leukemia
[4] = test system: SF-268 CNS
[5] = test system: OVCAR-3 ovarian
[6] = test system: HL-60(TB) leukemia
[7] = test system: MOLT-4 leukemia
[8] = test system: HT29 colon
[9] = test system: SW-620 colon
[10] = test system: UO-31 renal
[11] = test system: SR leukemia

`ClC(Cl)(Cl)C1CCOC1n1nnc2ccccc21` (stereo not given) was tested, and the TGI [1] was > 100 µM, the TGI [2] was 86 µM and the TGI [3] was 63.9 µM. The TGI [4] was > 100 µM, the TGI [5] was > 100 µM and the TGI [6] was 58.2 µM. The TGI [7] was 73.8 µM and the TGI [8] was > 100 µM.
`COc1ccc(C2C3=C(N=C4SC(C(C)=O)=C(C)N42)c2ccccc2CC3)cc1` (stereo not given) was tested, and the TGI [1] was > 100 µM, the TGI [2] was > 100 µM and the TGI [4] was > 100 µM. The TGI [5] was > 100 µM, the TGI [6] was 58 µM and the TGI [9] was > 100 µM. The TGI [8] was > 100 µM and the TGI [10] was > 100 µM.
For `CCc1cccc2c3c([nH]c12)-c1ccccc1NC(=O)C3`, the TGI [1] was > 100 µM, the TGI [2] was > 100 µM and the TGI [3] was > 100 µM. The TGI [4] was > 100 µM, the TGI [5] was > 100 µM and the TGI [6] was > 100 µM. The TGI [7] was > 100 µM, the TGI [9] was > 100 µM and the TGI [8] was > 100 µM. For the same compound, the TGI [10] was > 100 µM.
For `O=c1[nH]c(=O)n(C2CC(O)C(CO)O2)cc1Oc1ccccc1` (stereo not given), the TGI [1] was > 100 µM, the TGI [2] was > 100 µM and the TGI [11] was > 100 µM. The TGI [3] was > 100 µM, the TGI [4] was > 100 µM and the TGI [5] was > 100 µM. For the same compound, the TGI [6] was > 100 µM, the TGI [7] was > 100 µM and the TGI [8] was > 100 µM. The TGI [10] was > 100 µM.
In the case of `COc1ccccc1OCC(COC(=O)Nc1ccccc1)OC(=O)Nc1ccccc1` (stereo not given), the TGI [3] is reported as > 100 µM, the TGI [4] is reported as > 100 µM and the TGI [5] is reported as > 100 µM. For the same compound, the TGI [6] was > 100 µM, the TGI [9] was > 100 µM and the TGI [8] was > 100 µM. For the same compound, the TGI [10] was > 100 µM.
With `Cc1c(CNc2ccc(C(=O)NC(CCCNC(=O)c3ccccc3C(=O)O)C(=O)O)cc2)cnc2nc(N)nc(N)c12` (stereo not given) the TGI [2] was 6.62 µM, the GI50 [4] was 0.00161 µM and the TGI [5] was > 100 µM. The TGI [6] was > 100 µM and the TGI [9] was > 100 µM.
With `CC(C(=O)OCc1ccccc1)N(Cc1ccccc1)Cc1ccccc1` (stereo not given) the TGI [11] was > 100 µM, the TGI [3] was > 100 µM and the TGI [4] was > 100 µM. The TGI [5] was > 100 µM, the TGI [6] was 79.2 µM and the TGI [7] was > 100 µM. The TGI [9] was > 100 µM, the TGI [8] was > 100 µM and the TGI [10] was > 100 µM.
`C(/C=N/NC1=NCCCCN1)=N\NC1=NCCCCN1` was tested, and the TGI [1] was > 100 µM, the TGI [2] was > 100 µM and the TGI [11] was > 100 µM. For the same compound, the TGI [3] was > 100 µM, the TGI [4] was > 100 µM and the TGI [5] was > 100 µM. For the same compound, the TGI [7] was > 100 µM, the TGI [9] was > 100 µM and the TGI [8] was > 100 µM. The TGI [10] was > 100 µM.
With `Cc1cc(C)c2c(c1)CC1(Cc3cc(C)c(C)cc3C1=O)C2=O` (stereo not given) the TGI [1] was > 100 µM, the TGI [2] was > 100 µM and the TGI [11] was > 100 µM. The TGI [3] was > 100 µM, the TGI [4] was > 100 µM and the TGI [5] was > 100 µM. For the same compound, the TGI [6] was > 100 µM, the TGI [7] was > 100 µM and the TGI [9] was > 100 µM. For the same compound, the TGI [10] was > 100 µM.
`CC1=NN(c2cccc(Cl)c2)C2(C1=Cc1ccc(O)cc1)C(Cl)C(=O)N2c1nc2ccccc2s1` (stereo not given) gave a TGI [1] of 98.4 µM, a TGI [11] of 57.7 µM and a TGI [3] of 72.7 µM. For the same compound, the TGI [4] was 86 µM, the TGI [5] was > 100 µM and the TGI [6] was > 100 µM. For the same compound, the TGI [7] was 44.2 µM, the TGI [9] was 34.8 µM and the TGI [8] was 63.3 µM. For the same compound, the TGI [10] was 30.6 µM.
For `N#Cc1nc2cc(Cl)ccc2nc1N1CCN(c2ccc([N+](=O)[O-])cc2)CC1`, the TGI [1] was > 100 µM, the TGI [2] was > 100 µM and the TGI [3] was > 100 µM. For the same compound, the TGI [4] was > 100 µM, the TGI [5] was > 100 µM and the TGI [7] was > 100 µM. The TGI [9] was > 100 µM, the TGI [8] was > 100 µM and the TGI [10] was > 100 µM.
For `CC1CC[C@@]2(OC1)O[C@H]1[C@H](O)[C@H]3[C@@H]4CC[C@H]5C[C@@H](OC6OC(CO)C(OC7OC(CO)C(O)C(OC8OCC(O)C(O)C8O)C7OC7OC(CO)C(O)C(O)C7OC7OC(CO)C(O)C(O)C7O)C(O)C6O)[C@H](O)C[C@]5(C)[C@H]4CC[C@]3(C)[C@H]1[C@@H]2C` (stereo not given in full), the TGI [1] was 7.71 µM, the TGI [2] was > 10 µM and the TGI [3] was > 10 µM. The TGI [4] was > 10 µM, the TGI [5] was > 10 µM and the TGI [6] was 3.08 µM. The TGI [7] was 1.19 µM, the TGI [9] was > 10 µM and the TGI [8] was > 10 µM. For the same compound, the TGI [10] was > 10 µM.
For `COc1cc2ccc(C(=O)NCCCNC(=O)c3ccc4cc(OC)c(OC)cc4c3)cc2cc1OC`, the TGI [1] was > 100 µM, the TGI [2] was > 100 µM and the TGI [11] was > 100 µM. The TGI [3] was > 100 µM, the TGI [4] was > 100 µM and the TGI [5] was > 100 µM. For the same compound, the TGI [6] was > 100 µM, the TGI [9] was > 100 µM and the TGI [8] was > 100 µM. The TGI [10] was > 100 µM.
Work on `O=C(CCN1CCOCC1)/C(=C/c1ccccc1)c1ccccc1` yielded a TGI [1] of 18.8 µM, a TGI [3] of 4.24 µM and a TGI [4] of 19 µM. For the same compound, the TGI [5] was 13.5 µM, the TGI [6] was 4.19 µM and the TGI [7] was 5.81 µM. It also gave a TGI [9] of 6.9 µM, a TGI [8] of 17.6 µM and a TGI [10] of 28.1 µM.
With `CSC(SC)=C(C#N)C(=O)Nc1cccc(Cl)c1` the TGI [1] was > 100 µM, the TGI [2] was > 100 µM and the TGI [3] was > 100 µM. The TGI [4] was > 100 µM, the TGI [6] was 35.2 µM and the TGI [7] was 87.2 µM. The TGI [9] was > 100 µM and the TGI [8] was > 100 µM.
For `CC1CC/C(=C\c2ccc(F)cc2)C2=C1C(c1ccc(F)cc1)N1C(=O)CSC1=N2` (stereo not given), the TGI [1] was > 100 µM, the TGI [2] was > 100 µM and the TGI [3] was > 100 µM. The TGI [4] was > 100 µM, the TGI [5] was > 100 µM and the TGI [6] was > 100 µM. For the same compound, the TGI [7] was 60.6 µM, the TGI [9] was > 100 µM and the TGI [8] was > 100 µM. For the same compound, the TGI [10] was > 100 µM.
`C#CC(O)(c1nc2ccccc2s1)c1nc2ccccc2s1` was tested, and the TGI [1] was 52.9 µM, the TGI [2] was 57.3 µM and the TGI [3] was > 100 µM. For the same compound, the TGI [4] was > 100 µM, the TGI [5] was 40.8 µM and the TGI [6] was 46.1 µM. For the same compound, the TGI [7] was > 100 µM, the TGI [9] was > 100 µM and the TGI [8] was 77.6 µM. For the same compound, the TGI [10] was 29.4 µM.
With `C#CC[C@@]12CC(=O)C[C@@H]1CCC1(C2)OCCO1` (tested in a mixture with another compound) the TGI [1] was > 100 µM, the TGI [3] was > 100 µM and the TGI [4] was > 100 µM. The TGI [5] was > 100 µM, the TGI [6] was > 100 µM and the TGI [7] was > 100 µM. For the same compound, the TGI [9] was > 100 µM, the TGI [8] was > 100 µM and the TGI [10] was > 100 µM.
For `COC(=O)[C@H](Cc1c[nH]c2ccccc12)NP(=O)(OCCC#N)OCC1OC(n2cc(C)c(=O)[nH]c2=O)CC1N=[N+]=[N-]` (stereo not given in full), the TGI [1] was > 100 µM, the TGI [2] was > 100 µM and the TGI [3] was > 100 µM. For the same compound, the TGI [4] was > 100 µM, the TGI [5] was > 100 µM and the TGI [6] was > 100 µM. The TGI [7] was > 100 µM, the TGI [9] was > 100 µM and the TGI [8] was > 100 µM. The TGI [10] was > 100 µM.
With `CN(Cc1cnc2nc(N)nc(N)c2n1)c1ccc(C(=O)NC23CC4CC(CC(C4)C2)C3)cc1` the TGI [1] was 23.6 µM, the TGI [2] was 31.1 µM and the TGI [11] was > 100 µM. For the same compound, the TGI [3] was 65.8 µM, the TGI [4] was 22.7 µM and the TGI [5] was 30.5 µM. For the same compound, the TGI [6] was > 100 µM, the TGI [7] was 48.5 µM and the TGI [9] was > 100 µM. For the same compound, the TGI [10] was 24.1 µM.
`O=c1c2cc(C(F)(F)F)ccc2sc2c(NCCCNCCO)nc3ccccc3c12` showed a GI50 [2] of 5.28 µM, a TGI [2] of 24.9 µM and a GI50 [5] of 1.68 µM. The TGI [5] was 3.17 µM, the GI50 [9] was 1.54 µM and the TGI [9] was 2.98 µM. The GI50 [10] was 1.37 µM and the TGI [10] was 2.74 µM.
